From US4607034A, “Quinazoline derivatives and pharmaceutical composition thereof” (priority 1979, dated 1986)
Read-outs that look alike come from different tables or passages of the source.

Legend:
in vivo = assay type: in vivo; details: mouse, in vivo; oral, mice, ten mice/group, observed one week
Protocol: (§1) Ten ICR-strain male mice weighing from 25 to 35 g. were used per one group, after fasting for 6 hours (water was freely taken in). Each test sample was suspended in a 1% tragacanth solution and administered orally at a concentration adjusted so as to give a volume of 40 ml/kg. After administration, feed was given and observation was continued for one week.

ICR-strain male mice = assay: in vivo; assay type: in vivo; details: oral, ten mice/group, one week
Protocol: as §1

[1] = system: spontaneously hypertensive rats (SHR); assay: Antihypertensive test in spontaneously hypertensive rats (mean blood pressure); assay type: in vivo, male); details: Rattus norvegicus
Protocol: (§2) Through a cannula chronically intubated into the abdominal aorta of a male SHR of 20 to 30 weeks after birth, mean blood pressure and heart rate were measured by means of an electronic recording system without anesthesia and restraint. Five rats were employed in one group of SHR. […] At 1, 3, 6 and 24 hours after administration of test samples, blood pressure and heart rate were determined.

α-adrenoceptor = details: known; cited from earlier work
[2] = system: spontaneously hypertensive rats (SHR); details: rat, in vivo, po
Protocol: as §2

[3] = SHR 3 mg/kg, oral administration, 1 hr, negative = decrease, read-out: Percent decrease in mean blood pressure after administration, 1 hr
[4] = SHR 3 mg/kg, oral administration, 3 hrs, negative = decrease, read-out: Percent decrease in mean blood pressure after administration, 3 hrs
[5] = SHR 3 mg/kg, oral administration, 6 hrs, negative = decrease, read-out: Percent decrease in mean blood pressure after administration, 6 hrs
[6] = SHR 3 mg/kg, oral administration, 24 hrs, negative = decrease, read-out: Percent decrease in mean blood pressure after administration, 24 hrs

SMILES: COc1cc2nc(N3CCN(C(=O)NC4CCCC4)CC3)nc(N)c2cc1OC [Compound 3, 2-(4-cyclopentylcarbamoyl-piperazin-1-yl)-4-amino-6,7-dimethoxyquinazoline]
- LD50 at 168 h (in vivo): > 5000 mg/kg
- Number of dead mouse (ICR-strain male mice; 2,500 mg/kg): 0
- Number of dead mouse (ICR-strain male mice; 5,000 mg/kg): 0
- change in vivo at 3 mg/kg [1, 3]: -27.1%
- change in vivo at 3 mg/kg [1, 4]: -27%
- change in vivo at 3 mg/kg [1, 5]: -27%
- change in vivo at 3 mg/kg [1, 6]: -0.3%

SMILES: COc1cc2nc(N3CCN(C(=O)NC4CCCCC4)CC3)nc(N)c2cc1OC [Compound 4, 2-(4-cyclohexylcarbamoyl-piperazin-1-yl)-4-amino-6,7-dimethoxyquinazoline]
- LD50 at 168 h (in vivo): > 5000 mg/kg
- Number of dead mouse (ICR-strain male mice; 2,500 mg/kg): 0
- Number of dead mouse (ICR-strain male mice; 5,000 mg/kg): 0
- change in vivo at 3 mg/kg [1, 3]: -26.8%
- change in vivo at 3 mg/kg [1, 4]: -26.2%
- change in vivo at 3 mg/kg [1, 5]: -25.1%
- change in vivo at 3 mg/kg [1, 6]: -4.9%

SMILES: COc1cc2nc(N3CCN(C(=O)NC4CCCCCC4)CC3)nc(N)c2cc1OC [Compound 5, 2-(4-cycloheptylcarbamoyl-piperazin-1-yl)-4-amino-6,7-dimethoxyquinazoline]
- change in vivo at 3 mg/kg [1, 3]: -18.4%
- change in vivo at 3 mg/kg [1, 4]: -24.7%
- change in vivo at 3 mg/kg [1, 5]: -19.2%
- change in vivo at 3 mg/kg [1, 6]: -3.7%

SMILES: COc1cc2nc(N3CCN(C(=O)Nc4ccco4)CC3)nc(N)c2cc1OC [Compound 6, 2-[4-(furan-2-yl)carbamoyl-piperazin-1-yl]-4-amino-6,7-dimethoxyquinazoline]
- change in vivo at 3 mg/kg [1, 3]: -11.9%
- change in vivo at 3 mg/kg [1, 4]: -14.5%
- change in vivo at 3 mg/kg [1, 5]: -11.4%
- change in vivo at 3 mg/kg [1, 6]: 1%

SMILES: COc1cc2nc(N3CCN(C(=S)NC4CCCCC4)CC3)nc(N)c2cc1OC [Compound 9, 2-(4-cyclohexylthiocarbamoyl-piperazin-1-yl)-4-amino-6,7-dimethoxyquinazoline]
- change in vivo at 3 mg/kg [1, 3]: -19.3%
- change in vivo at 3 mg/kg [1, 4]: -22.2%
- change in vivo at 3 mg/kg [1, 5]: -20.5%
- change in vivo at 3 mg/kg [1, 6]: -1.3%

SMILES: COc1cc2nc(N3CCN(C(=O)Nc4ccccc4)CC3)nc(N)c2cc1OC [Compound 12, 2-(4-phenylcarbamoyl-piperazin-1-yl)-4-amino-6,7-dimethoxyquinazoline]
- LD50 at 168 h (in vivo): > 5000 mg/kg
- Number of dead mouse (ICR-strain male mice; 2,500 mg/kg): 0
- Number of dead mouse (ICR-strain male mice; 5,000 mg/kg): 0
- change in vivo at 3 mg/kg [1, 3]: -13.3%
- change in vivo at 3 mg/kg [1, 4]: -19.7%
- change in vivo at 3 mg/kg [1, 5]: -17%
- change in vivo at 3 mg/kg [1, 6]: 3.7%

SMILES: COc1cc2nc(N3CCN(C(=O)Nc4ccccc4C)CC3)nc(N)c2cc1OC [Compound 13, 2-[4-(2-methylphenyl)carbamoyl-piperazin-1-yl]-4-amino-6,7-dimethoxyquinazoline]
- LD50 at 168 h (in vivo): 2500 mg/kg
- Number of dead mouse (ICR-strain male mice; 2,500 mg/kg): 5
- Number of dead mouse (ICR-strain male mice; 5,000 mg/kg): 10
- change in vivo at 3 mg/kg [1, 3]: -20.2%
- change in vivo at 3 mg/kg [1, 4]: -17.9%
- change in vivo at 3 mg/kg [1, 5]: -21.4%
- change in vivo at 3 mg/kg [1, 6]: 1.2%

SMILES: COc1cc2nc(N3CCN(C(=O)Nc4ccc(C)cc4)CC3)nc(N)c2cc1OC [Compound 15, 2-[4-(4-methylphenyl)carbamoyl-piperazin-1-yl]-4-amino-6,7-dimethoxyquinazoline]
- change in vivo at 3 mg/kg [1, 3]: -17.1%
- change in vivo at 3 mg/kg [1, 4]: -18.5%
- change in vivo at 3 mg/kg [1, 5]: -21.8%
- change in vivo at 3 mg/kg [1, 6]: 1.2%

SMILES: COc1cccc(NC(=O)N2CCN(c3nc(N)c4cc(OC)c(OC)cc4n3)CC2)c1 [Compound 18, 2-[4-(3-methoxyphenyl)carbamoyl-piperazin-1-yl]-4-amino-6,7-dimethoxyquinazoline]
- change in vivo at 3 mg/kg [1, 3]: -5.9%
- change in vivo at 3 mg/kg [1, 4]: -17.2%
- change in vivo at 3 mg/kg [1, 5]: -15.9%
- change in vivo at 3 mg/kg [1, 6]: 4.6%

SMILES: CCOc1ccc(NC(=O)N2CCN(c3nc(N)c4cc(OC)c(OC)cc4n3)CC2)cc1 [Compound 21, 2-[4-(4-ethoxyphenyl)carbamoyl-piperazin-1-yl]-4-amino-6,7-dimethoxyquinazoline]
- LD50 at 168 h (in vivo): > 5000 mg/kg
- Number of dead mouse (ICR-strain male mice; 2,500 mg/kg): 0
- Number of dead mouse (ICR-strain male mice; 5,000 mg/kg): 0
- change in vivo at 3 mg/kg [1, 3]: -22.4%
- change in vivo at 3 mg/kg [1, 4]: -24.5%
- change in vivo at 3 mg/kg [1, 5]: -27.7%
- change in vivo at 3 mg/kg [1, 6]: -6.4%

SMILES: COc1cc2nc(N3CCN(C(=O)Nc4ccccc4F)CC3)nc(N)c2cc1OC [Compound 25, 2-[4-(2-fluorophenyl)carbamoyl-piperazin-1-yl]-4-amino-6,7-dimethoxyquinazoline]
- LD50 at 168 h (in vivo): 1870 mg/kg
- Number of dead mouse (ICR-strain male mice; 1,250 mg/kg): 3
- Number of dead mouse (ICR-strain male mice; 2,500 mg/kg): 7
- Number of dead mouse (ICR-strain male mice; 5,000 mg/kg): 10
- change in vivo at 3 mg/kg [1, 3]: -30.3%
- change in vivo at 3 mg/kg [1, 4]: -22%
- change in vivo at 3 mg/kg [1, 5]: -23.8%
- change in vivo at 3 mg/kg [1, 6]: -7.3%

SMILES: COc1cc2nc(N3CCN(C(=O)Nc4cccc(F)c4)CC3)nc(N)c2cc1OC [Compound 26, 2-[4-(3-fluorophenyl)carbamoyl-piperazin-1-yl]-4-amino-6,7-dimethoxyquinazoline]
- change in vivo at 3 mg/kg [1, 3]: -21.5%
- change in vivo at 3 mg/kg [1, 4]: -21.7%
- change in vivo at 3 mg/kg [1, 5]: -24.3%
- change in vivo at 3 mg/kg [1, 6]: 0%

SMILES: COc1cc2nc(N3CCN(C(=O)Nc4cccc(Cl)c4)CC3)nc(N)c2cc1OC [Compound 29, 2-[4-(3-chlorophenyl)carbamoyl-piperazin-1-yl]-4-amino-6,7-dimethoxyquinazoline]
- change in vivo at 3 mg/kg [1, 3]: -15.1%
- change in vivo at 3 mg/kg [1, 4]: -18.5%
- change in vivo at 3 mg/kg [1, 5]: -19.4%
- change in vivo at 3 mg/kg [1, 6]: -4.9%

SMILES: COc1cc2nc(N3CCN(C(=O)Nc4ccc(Cl)cc4C)CC3)nc(N)c2cc1OC [Compound 34, 2-[4-(2-methyl-4-chlorophenyl)carbamoyl-piperazin-1-yl]-4-amino-6,7-dimethoxyquinazoline]
- change in vivo at 3 mg/kg [1, 3]: -12.1%
- change in vivo at 3 mg/kg [1, 4]: -19%
- change in vivo at 3 mg/kg [1, 5]: -18.2%
- change in vivo at 3 mg/kg [1, 6]: -1.2%

SMILES: COc1cc2nc(N3CCN(/C(S)=N/c4ccccc4)CC3)nc(N)c2cc1OC [Compound 35, 2-(4-phenylthiocarbamoyl-piperazin-1-yl)-4-amino-6,7-dimethoxyquinazoline]
- LD50 at 168 h (in vivo): > 5000 mg/kg
- Number of dead mouse (ICR-strain male mice; 2,500 mg/kg): 0
- Number of dead mouse (ICR-strain male mice; 5,000 mg/kg): 0
- change in vivo at 3 mg/kg [1, 3]: -28%
- change in vivo at 3 mg/kg [1, 4]: -20.9%
- change in vivo at 3 mg/kg [1, 5]: -24.7%
- change in vivo at 3 mg/kg [1, 6]: 0.6%

SMILES: COc1cc2nc(N3CCCN(C(=O)Nc4ccccc4)CC3)nc(N)c2cc1OC [Compound 37, 2-(4-phenylcarbamoyl-homopiperazin-1-yl)-4-amino-6,7-dimethoxyquinazoline]
- change in vivo at 3 mg/kg [1, 3]: -11.7%
- change in vivo at 3 mg/kg [1, 4]: -12.8%
- change in vivo at 3 mg/kg [1, 5]: -5%
- change in vivo at 3 mg/kg [1, 6]: 0%

SMILES: COc1cc2nc(N3CCN(C(=O)c4ccco4)CC3)nc(N)c2cc1OC [Prazosin, 2-[4-(2-furoyl)-piperazin-1-yl]-4-amino-6,7-dimethoxyquinazoline, reference compound]
- mechanism of antihypertensive activity (α-adrenoceptor): relaxation of peripheral arterioles as a consequence of α-adrenoceptor blockade
- change in heart rate [2]: no significant change
- change in vivo at 3 mg/kg ([1]; po, 24 h, read-out: Percent decrease in mean blood pressure after administration, 24 hrs): -1.7%
- change in vivo at 3 mg/kg [1, 3]: -27.9%
- change in vivo at 3 mg/kg [1, 4]: -17.3%
- change in vivo at 3 mg/kg [1, 5]: -19%
